These results are taken from PMC10097024, “Cytotoxic and Antibacterial Prenylated Acylphloroglucinols from Hypericum olympicum L” (Plants, 2023).

By TGI is commonly meant the concentration at which net growth stops. A higher TGI goes with lower sensitivity of the cells. By GI50 is commonly meant the concentration that inhibits growth by half. A low value points to more potent growth inhibition.

Where two headings read alike, the source gives them in different places.

The test system of one assay is EA.hy926. In words: MTT cytotoxicity test. In kind it is cell-based, human. The text has this:
(§1) The group of human cell lines used in this study were represented by the tumor cell lines MDA-MB (breast carcinoma), EJ (urinary bladder carcinoma), K-562 (chronic myeloid leukemia), HL-60 (acute pre-myeloid leukemia), HL-60/DOX (multi-drug resistant HL-60 cell line, with over expression of MRP-1) and the non-tumorigenic cell lines HEK-293 (embryonic kidney cells) and EA.hy926 (vascular endothelial cells). EJ, HL60 and EA.hy926 were purchased from American Type Culture Collection (ATCC) (Manassas, Virginia). The other cell lines were purchased from the German Collection of Microorganisms and Cell Cultures (DSMZ GmbH, Braunschweig, Germany). HL-60/DOX cell lines were generated by periodically treating HL-60 cells with anthracyclins. The conditions in which the cell culture flasks were maintained were as follows: 37 °C in an incubator “BB 16-Function Line” Heraeus (Kendro, Hanau, Germany) with 5% CO2 humidified atmosphere. The growth medium was 90% RPMI-1640, supplemented with 10% FBS and 2 mM L-glutamine. MDA-MB-231, EJ, HEK-293 and EA.hy926 cells were maintained as adherent monolayer cultures while all the other (leukemic) cell lines were grown as suspension type cultures. Cells were maintained in log phase: the adherent cell lines were subjected to trypsinization 1–2 times a week and the leukemic cell lines were passaged 2–3 times a week by removing of part of the cellular suspension and substituting it with fresh medium.
(§2) The evaluation of cytotoxic activity was conducted by MTT test as described previously. The median inhibitory concentration (IC50) values which represent the half-maximal concentration values were calculated from sigmoidal concentration–response curves, using non-linear regression analysis (Curve fit, GraphPad Prizm 5.0 software, GraphPad Software Inc., San Diego, CA, USA). The selectivity index was calculated as the ratio of the IC50 of a non-cancerous line (HEK-293 or EA.hy926) and the average IC50 of all chemosensitive tested tumor cell lines (x). Therefore, SI=IC50HEK-293/IC50x . The resistance index (RI) was calculated as the ratio of IC50 of the multi-drug resistant HL-60/DOX cell line and the IC50 of its parent cell line: RI=IC50HL-60/DOX/IC50HL-60 .
For orientation: Tetrazolium dyes change colour on reduction, which living cells bring about.

The subject of another assay is EJ. In words: MTT cytotoxicity test. In kind it is cell-based, human. Particulars: 72 h exposure.
Description: as §1, §2

The next assay relates to HEK-293. In words: MTT cytotoxicity test. It counts as cell-based, human.
Description: as §1, §2

The test system of a further assay is HL-60/DOX. The assay can be described thus: MTT cytotoxicity test. It counts as cell-based, human. Particulars: 72 h exposure.
Description: as §1, §2

For assay [1], the system named is HL-60. The assay can be described thus: MTT cytotoxicity test. It counts as cell-based, human. Particulars: HL-60, 72 h exposure.
Description: as §1, §2

For assay [2], the system named is K-562. The assay can be described thus: MTT cytotoxicity test. In kind it is cell-based, human.
Description: as §1, §2

The test system of assay [3] is MDA-MB-231. In words: MTT cytotoxicity test. Particulars: MDA-MB-231, 72 h exposure. In kind it is cell-based, human.
Description: as §1, §2

For assay [4], the system named is human tumor (MDA-MB-231, EJ, K-562, HL-60 and HL-60/DOX) cell lines. In words: MTT cytotoxicity test, tumor cell line panel. It counts as cell-based.
Description: as §1, §2

Assay [5] has as its system HL-60. In words: Antiproliferative test (NCI methodology). As to conditions: for TGI: HL-60, total growth inhibition; for GI50: HL-60, MTT readout. In kind it is cell-based, human.
Description: as §1
(§3) The test was performed according the methodology of National Cancer Institute (NCI), USA [116]. Briefly, cells were seeded into 96-well plates in the same way as for an MTT test and after 24 h, the absorption of one plate of each cell line was measured as in the MTT assay described above, to represent a measurement of the cell population at the time of drug-addition (Tz). The rest of the plates were treated with the tested compounds and the experiment for them continued as the MTT-method. Using the absorbance measurements [(Tz, untreated control growth (C) and test growth in the present of the compounds (Ti)], the percentage growth is calculated at each of the tested concentrations of the compounds. Percentage growth inhibition (GI) is calculated as GI%=Ti−Tz/C−Tz×100 for concentrations for which Ti ≥ Tz. For concentrations in which Ti < Tz it is calculated as GI%=Ti−Tz/Tz×100 . Two dose parameters are calculated for each experimental agent. Growth inhibition of 50% (GI50) is calculated from Ti−Tz/C−Tz×100=50 . This is the drug concentration resulting in a 50% reduction in the net protein increase (as measured by MTT-test) in control cells during the drug incubation. The drug concentration resulting in total growth inhibition (TGI) is calculated from Ti = Tz.

The test system of assay [6] is K-562. The assay can be described thus: Antiproliferative test (NCI methodology). In kind it is cell-based, human. As to conditions: for GI50: K-562, MTT readout; for TGI: K-562, total growth inhibition.
Description: as §1, §3

The subject of assay [7] is MDA-MB-231. In words: Antiproliferative test (NCI methodology). It counts as cell-based, human. Particulars: for GI50: MDA-MB-231, MTT readout; for TGI: MDA-MB-231, total growth inhibition.
Description: as §1, §3

[8] abbreviates: Homo sapiens, EA.hy 926, EA.hy926, 72 h exposure.
Setting [9] is: Homo sapiens, HEK293, HEK-293, 72 h exposure.
The mark [10] stands for this setting: Homo sapiens, K562, K-562, 72 h exposure.
The mark [11] stands for this setting: Homo sapiens, average IC50 of all chemo-sensitive tested tumor cell lines, read-out: x.

On to `CC(C)=CCC[C@]1(C)[C@@H](CC=C(C)C)C[C@]2(C)C(=O)C(CC=C(C)C)=C(O)[C@@]1(C(=O)C(C)C)C2=O` [Compound 3, hyperpolyphyllirin/hyperibine J], for which the IC50 in the assay with EA.hy926 (setting [8]) stood at 19.9 ± 3.1 µM; in the assay on EJ (Homo sapiens) it was 8.02 ± 1.6 µM; in the assay on HEK-293 (setting [9]) it was 10.7 ± 2.1 µM; in the assay on HL-60/DOX (Homo sapiens) it was 1.28 ± 0.2 µM; in the assay with HL-60 [1] (Homo sapiens), 10.9 ± 1.9 µM; in the assay on K-562 [2] (setting [10]) it was 3.17 ± 0.3 µM. For the same compound, the IC50 with MDA-MB-231 [3] (Homo sapiens) came out at 2.63 ± 0.3 µM; in assay [4] (setting [11]), 6.18 µM. The concentration for total growth inhibition (TGI) in the assay with HL-60 [5] was determined as 47.43 µM; with K-562 [6], 0.77 µM; in the assay on MDA-MB-231 [7], 2.96 µM. In addition, the GI50 in the assay with HL-60 [5] (Homo sapiens) worked out at 41.1 µM; in the assay on K-562 [6] (Homo sapiens, K562), 0.44 µM; in the assay on MDA-MB-231 [7] (Homo sapiens), 1.93 µM.
Consider `CC(C)=CCC[C@]1(C)[C@@H](CC=C(C)C)C[C@H]2C(=O)[C@]1(C(=O)C(C)C)C(=O)C(CC=C(C)C)=C2O` [Compound 5, (1S,5R,7S,8R)-4-hydroxy-1-isobutyryl-8-methyl-3,7-bis(3-methylbut-2-en-1-yl)-8-(4-methylpent-3-en-1-yl)bicyclo[3.3.1]non-3-ene-2,9-dione], for which the IC50 with EA.hy926 (setting [8]) came out at 9.43 ± 2 µM; with EJ (Homo sapiens), 1.21 ± 0.3 µM; with HEK-293 (setting [9]), 0.89 ± 0.1 µM; with HL-60/DOX (Homo sapiens), 1.71 ± 0.2 µM; with HL-60 [1] (Homo sapiens), 1.16 ± 0.1 µM; with K-562 [2] (setting [10]), 1.58 ± 0.1 µM. Besides, the IC50 is 1.31 ± 0.2 µM in the assay with MDA-MB-231 [3] (Homo sapiens); 1.32 µM in [4] (setting [11]); 1.16 to 1.71 µM in [4] (Homo sapiens, tumor cell lines, MTT assay, read-out: IC50 (range over the tumor cell lines)).
“(1R,5R,7S,8R)-4-hydroxy-5,8-dimethyl-3,7-bis(3-methylbut-2-en-1-yl)-1-(2-methylbutanoyl)-8-(4-methylpent-3-en-1-yl)bicyclo[3.3.1]non-3-ene-2,9-dione [Compound 4]”: the IC50 in the assay with EA.hy926 (EA.hy926, 72 h exposure) came to 5.34 ± 1.9 µM; in the assay on EJ, 8.06 ± 1.7 µM; in the assay with HEK-293 (HEK-293, 72 h exposure) it was 35.8 ± 4.4 µM; in the assay on HL-60/DOX it was 12.2 ± 3.2 µM; in the assay on HL-60 [1], 22.2 ± 3.4 µM; with K-562 [2] (K-562, 72 h exposure), 17.2 ± 3 µM. The IC50 in the assay with MDA-MB-231 [3] is 12.5 ± 2.1 µM; in assay [4] (average IC50 of all chemo-sensitive tested tumor cell lines, read-out: x) it was 15 µM. The values for the GI50 in the assay with HL-60 [5], in the assay with K-562 [6] and with MDA-MB-231 [7] were 41.1 µM, 16 µM and 0.52 µM, respectively. Besides, the TGI in the assay with HL-60 [5] was determined as 55.55 µM; in the assay on K-562 [6], 18.38 µM; in the assay with MDA-MB-231 [7] it was 0.81 µM.
